Test results: the supplement of paper PMC10307832

Experiments:
Test in all cases: relative viability (nuclei count vs DMSO), 5 days (fraction); higher = more cells survive
[1] = compound: CN(c1ncccc1CNc1nc(Nc2ccc3c(c2)CC(=O)N3)ncc1C(F)(F)F)S(C)(=O)=O + O=C(CCCCCCC(=O)Nc1ccccc1)NO [Vorinostat] (partner 1 µM)
How it was run: (§1)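 Five library-drug doses in √10 steps were combined with a fixed anchor-drug dose, or a single drug was given alone, by pin tool to lung cancer cell lines in 1536-well plates the day after seeding. Nuclei were stained and counted after 5 days. Relative viability is the nuclei count in treated wells over that in vehicle wells, taken as the median of duplicate plates.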

[2] = compound: CN(c1ncccc1CNc1nc(Nc2ccc3c(c2)CC(=O)N3)ncc1C(F)(F)F)S(C)(=O)=O + C[C@]1(O)C[C@@H](c2nc(-c3ccc4ccc(-c5ccccc5)nc4c3)c3c(N)nccn32)C1 [Linsitinib] (partner 1 µM)
How it was run: as §1

[3] = compound: CN(c1ncccc1CNc1nc(Nc2ccc3c(c2)CC(=O)N3)ncc1C(F)(F)F)S(C)(=O)=O + Nc1nc2[nH]cc(CCc3ccc(C(=O)N[C@@H](CCC(=O)O)C(=O)O)cc3)c2c(=O)[nH]1 [Pemetrexed] (partner 0.2 µM)
How it was run: as §1

[4] = compound: CN(c1ncccc1CNc1nc(Nc2ccc3c(c2)CC(=O)N3)ncc1C(F)(F)F)S(C)(=O)=O + O=C(c1cc(Cc2n[nH]c(=O)c3ccccc23)ccc1F)N1CCN(C(=O)C2CC2)CC1 [Olaparib] (partner 8 µM)
How it was run: as §1

Cell Line	relative viability ([1]; first compound 0.01 µM)	relative viability ([1]; first compound 0.03162 µM)	relative viability ([1]; first compound 0.1 µM)	relative viability ([1]; first compound 0.3162 µM)	relative viability ([1]; first compound 1 µM)	relative viability ([2]; first compound 0.01 µM)	relative viability ([2]; first compound 0.03162 µM)	relative viability ([2]; first compound 0.1 µM)	relative viability ([2]; first compound 0.3162 µM)	relative viability ([2]; first compound 1 µM)	relative viability ([3]; first compound 0.01 µM)	relative viability ([3]; first compound 0.03162 µM)	relative viability ([3]; first compound 0.1 µM)	relative viability ([3]; first compound 0.3162 µM)	relative viability ([3]; first compound 1 µM)	relative viability ([4]; first compound 0.01 µM)	relative viability ([4]; first compound 0.03162 µM)	relative viability ([4]; first compound 0.1 µM)	relative viability ([4]; first compound 0.3162 µM)	relative viability ([4]; first compound 1 µM)
201T	0.971	0.98	0.915	0.9	0.923	1.05	1.04	1.04	1.01	0.995	0.336	0.333	0.383	0.34	0.316	0.827	0.887	0.814	0.776	0.779
A-427	0.892	0.874	0.878	0.903	0.859	1.12	1.12	1.1	1.14	1.06	0.939	0.956	0.932	0.955	0.948	0.752	0.738	0.651	0.741	0.651
ABC-1	1.02	0.948	1.28	1.11	1.27	0.908	0.914	0.75	0.814	0.967						0.813	1.08	1.42	0.893	1.06
BEN	0.546	0.625	0.578	0.544	0.554	0.912	0.972	0.938	0.879	1.04	0.771	0.753	0.777	0.809	0.671	0.961	1.27	1.26	1.18	1.1
CAL-12T	0.91	0.854	0.726	0.767	0.708	0.886	0.861	0.705	0.616	0.639	1.24	1.12	1.25	1.36	0.982	0.766	0.697	0.619	0.775	0.636
COR-L23	0.471	0.392	0.327	0.305	0.295	0.853	0.983	0.818	1.07	0.735	0.202	0.18	0.211	0.205	0.203	0.382	0.344	0.33	0.305	0.278
COR-L 105	0.813	0.865	0.873	0.855	0.619	0.964	1	1.09	0.882	0.67	1.09	1.06	1.07	1.11	1.05	0.794	0.709	0.728	0.645	0.522
Calu-6						1.05	0.992	0.892	0.955	0.914						0.581	0.581	0.535	0.498	0.453
ChaGo-K-1	0.756	0.708	0.778	0.816	0.738						0.252	0.254	0.264	0.258	0.246	0.453	0.397	0.4	0.401	0.355
EBC-1						0.951	1.01	0.889	0.91	0.788						0.71	0.649	0.706	0.634	0.58
EKVX	0.638	0.746	0.638	0.627	0.494	0.94	1.13	0.85	0.931	0.882	0.436	0.413	0.347	0.401	0.382	0.833	0.796	0.798	0.772	0.676
EMC-BAC-2	0.46	0.229	0.446	0.44	0.443	0.797	0.838	0.792	0.79	0.804	0.427	0.471	0.433	0.472	0.45	0.508	0.495	0.488	0.464	0.464
EPLC-272H	0.546	0.23	0.408	0.564	0.263	1.21	1.12	1.22	1.33	1.12	0.332	0.349	0.375	0.345	0.313	0.699	0.544	0.821	0.871	0.506
H3255	0.881	0.931	0.767	0.796	0.743	0.924	0.949	0.988	0.912	0.922	0.647	0.585	0.541	0.614	0.549	0.623	0.611	0.554	0.547	0.445
HARA	0.569	0.573	0.55	0.516	0.432	0.945	1.06	1.03	0.978	0.856	0.255	0.248	0.199	0.258	0.223	0.895	0.75	0.685	1.1	0.9
HCC-15	0.79	0.796	0.741	0.77	0.675	0.898	0.894	0.802	0.86	0.688	0.22	0.237	0.218	0.21	0.215	0.778	0.799	0.713	0.661	0.619

Cell Line	relative viability ([1]; first compound 0.01 µM)	relative viability ([1]; first compound 0.03162 µM)	relative viability ([1]; first compound 0.1 µM)	relative viability ([1]; first compound 0.3162 µM)	relative viability ([1]; first compound 1 µM)	relative viability ([2]; first compound 0.01 µM)	relative viability ([2]; first compound 0.03162 µM)	relative viability ([2]; first compound 0.1 µM)	relative viability ([2]; first compound 0.3162 µM)	relative viability ([2]; first compound 1 µM)	relative viability ([3]; first compound 0.01 µM)	relative viability ([3]; first compound 0.03162 µM)	relative viability ([3]; first compound 0.1 µM)	relative viability ([3]; first compound 0.3162 µM)	relative viability ([3]; first compound 1 µM)	relative viability ([4]; first compound 0.01 µM)	relative viability ([4]; first compound 0.03162 µM)	relative viability ([4]; first compound 0.1 µM)	relative viability ([4]; first compound 0.3162 µM)	relative viability ([4]; first compound 1 µM)
HCC-44	1.1	1.06	1.13	1.14	1.1	0.73	0.688	0.722	0.714	0.664	0.668	0.622	0.639	0.65	0.611	0.959	0.978	0.917	0.875	0.904
HCC-78	0.526	0.47	0.431	0.414	0.403	0.654	0.578	0.425	0.439	0.486	0.907	0.922	0.921	0.922	0.929	0.856	0.999	0.783	0.797	0.714
HCC-366	0.412	0.394	0.365	0.366	0.295	0.488	0.913	0.591	0.576	0.508	0.219	0.172	0.164	0.172	0.186	0.351	0.376	0.347	0.292	0.352
HCC-827	0.923	0.861	0.806	0.954	0.783	0.999	0.915	0.93	0.905	0.914	0.248	0.269	0.257	0.294	0.313	0.635	0.557	0.647	0.707	0.705
HOP-62	0.759	0.769	0.574	0.732	0.596	0.843	1.09	1.06	0.786	0.933	0.34	0.337	0.289	0.418	0.28	0.526	0.421	0.326	0.363	0.384
IA-LM	0.991	1.12	0.801	0.859	0.86	0.6	0.54	0.583		0.599						0.758	0.959	0.802		0.66
NCI-H727	1.26	1.29	1.23	1.08	1.34	0.317	0.305	0.352	0.273	0.21						0.776	0.707	0.77	0.635	0.715
NCI-H1299						1.06	1.05	0.961	0.976	0.986						0.96	1.04	0.991	0.948	0.955
NCI-H1563						1.16	1.23	1.31	1.07	1.06	0.815	0.772	0.84	0.772	0.773					
NCI-H1648	0.336	0.493	0.471	0.292	0.413						0.66	0.707	0.604	0.694	0.422	0.874	0.886	0.918	0.48	0.46
NCI-H1650	0.682	0.513	0.581	0.586	0.69						0.379	0.321	0.432	0.384	0.318	0.753	0.783	0.784	0.672	0.675
NCI-H1703						0.692	0.647	0.756	0.836	0.637						0.393	0.388	0.368	0.526	0.389
NCI-H1792						0.442	0.487	0.512	0.566	0.559	0.903	0.995	0.922	0.752	0.867	0.414	0.386	0.691	0.495	0.386
NCI-H2170	0.817	0.882	0.836	0.832	0.859						0.305	0.268	0.269	0.266	0.274	0.684	0.652	0.672	0.604	0.521
SW 900	0.535	0.511	0.594	0.661	0.562						0.49	0.459	0.477	0.484	0.51	0.867	1.09	1.01	0.722	0.718
